This is an account of results in US20130023555A1, “KINASE INHIBITOR WITH IMPROVED SOLUBILITY PROFILE” (Abbott Laboratories, priority 2011, published 2013).

The target of data set [1] is T1, KDR (Homo sapiens, UniProt P35968).
T1 construct: KDR 789- 1354; His6 (N)
Kind of data set: HTRF in vitro kinase assay, KDR. The format is biochemical. Particulars: 1 mM ATP. On the procedure: (§1) To determine the activity of the various kinases, a homogenous time-resolved fluorescence (HTRF) in vitro kinase assay was used. (Mathis, G., HTRF(R) Technology. J Biomol Screen, 1999. 4(6): p. 309-314; Alfred J. Kolb, Paul V. Kaplita, David J. Hayes, Young-Whan Park, Christine Pernell, John S. Major and Gerard Mathis, Drug Discovery Today, 1998, 3, 333-342.)
(§2) For example for KDR, cKIT, FLT1, CSF1R and FTL3, purified enzyme was mixed with 0.5 μM N-biotinylated substrate (Biotin-Ahx-[…]-amide (SEQ. ID. 1)), various concentrations of inhibitor in reaction buffer (50 mM HEPES, pH 7.1, 10 mM MgCl2, 2 mM MnCl2, 0.1% BSA and 1 mM DTT, 40 μL final volume), ATP (1 mM final conc.) in a black 384-well plate. […] The quenched reaction was allowed to stand at room temperature for 3 hours and was then read in a time-resolved fluorescence detector (InVision, Perkin-Elmer) at 620 nm and 665 nm sequentially with excitation. The ratio between the signal of 620 nm and 665 nm was used in the calculation of the IC50.
A general note: TR-FRET usually uses a lanthanide donor and a delayed reading to cut background.

Data set [2] deals with T2, cKIT (Homo sapiens, UniProt P10721).
T2 construct: GST
T2 sequence (P10721 544-976 limits assumed): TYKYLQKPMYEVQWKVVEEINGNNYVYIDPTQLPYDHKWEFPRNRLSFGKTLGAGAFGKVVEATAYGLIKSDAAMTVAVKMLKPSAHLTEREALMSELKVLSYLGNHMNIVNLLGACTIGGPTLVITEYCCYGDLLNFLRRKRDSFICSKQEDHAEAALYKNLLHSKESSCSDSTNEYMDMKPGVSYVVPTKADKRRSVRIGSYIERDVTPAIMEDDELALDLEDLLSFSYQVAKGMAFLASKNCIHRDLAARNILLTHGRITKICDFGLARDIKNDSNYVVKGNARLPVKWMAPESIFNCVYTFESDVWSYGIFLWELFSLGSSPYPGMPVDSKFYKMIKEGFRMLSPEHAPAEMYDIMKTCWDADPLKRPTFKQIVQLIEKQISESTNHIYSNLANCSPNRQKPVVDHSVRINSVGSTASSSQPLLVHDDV
Briefly: HTRF in vitro kinase assay, cKIT. The note with it: 1 mM ATP. The format is biochemical. On the procedure:
as §1
For example for KDR, cKIT, FLT1, CSF1R and FTL3, purified enzyme was mixed with 0.5 μM N-biotinylated substrate (Biotin-Ahx-[…]-amide (SEQ. ID. 1)), various concentrations of inhibitor in reaction buffer (50 mM HEPES, pH 7.1, 10 mM MgCl2, 2 mM MnCl2, 0.1% BSA and 1 mM DTT, 40 μL final volume), ATP (1 mM final conc.) in a black 384-well plate. After 60 minutes incubation at room temperature, the reaction was quenched by addition of a buffered EDTA solution (final approximate concentrations: 30 mM EDTA, 0.1% BSA, 0.1% Triton X-100 and 0.24M KF) and a solution of revelation agents (to give 0.084 ng/well streptavidin-XL-665 (Cis-Bio) and 6.5 ng/well antiphsophotyrosine mAb PT66-K Europium kryptate) was added to the reaction mixture. The quenched reaction was allowed to stand at room temperature for 3 hours and was then read in a time-resolved fluorescence detector (InVision, Perkin-Elmer) at 620 nm and 665 nm sequentially with excitation. The ratio between the signal of 620 nm and 665 nm was used in the calculation of the IC50.

Data set [3] deals with T3, Aurora A (Homo sapiens, UniProt O14965).
T3 sequence (O14965 1-403): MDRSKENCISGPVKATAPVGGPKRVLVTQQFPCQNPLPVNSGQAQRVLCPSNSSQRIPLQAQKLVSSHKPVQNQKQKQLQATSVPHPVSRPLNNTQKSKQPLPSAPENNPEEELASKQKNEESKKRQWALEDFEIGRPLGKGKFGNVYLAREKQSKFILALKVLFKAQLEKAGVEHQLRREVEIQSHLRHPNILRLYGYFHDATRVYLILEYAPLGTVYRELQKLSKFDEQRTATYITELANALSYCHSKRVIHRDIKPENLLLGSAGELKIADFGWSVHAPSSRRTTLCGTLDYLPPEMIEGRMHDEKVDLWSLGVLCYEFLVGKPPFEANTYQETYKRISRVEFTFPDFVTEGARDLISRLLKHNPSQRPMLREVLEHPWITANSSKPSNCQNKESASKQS
Briefly: Aurora A enzyme assay (time-resolved fluorescence). Format: biochemical. The note with it: 1 mM ATP. On the procedure:
After 1 hour, the reaction was stopped with EDTA and anti-phospho-STK antibody Europium Cryptate (Upstate) and SA-XL665 (Upstate) were added to detect the phosphopeptide. The amount of phosphorylation was determined by the time-resolved fluorescence ratio of signals at 665 nm and 615 nm. The IC50s were calculated by an exponential fit of the inhibition values with the inhibitor concentrations using Assay Explorer software.

A short description of data set [4]: CLND Solubility Assay. Format: physicochemical. The protocol:
Chemiluminescent nitrogen detection (CLND) method oxidized the analyte to nitrogen oxide that reacted with ozone to provide a photon of light and was a measure of how much compound was in solution. Compounds must contain nitrogens for this experiment. Nitrogen impurities present in the compound will cause falsely high results. • 1. Compound concentration tested was 35 μM in 10 mM phosphate buffer, 7.2. • 2. Compounds were tested in triplicate. • 3. Compound concentration was determined by comparing readings to a caffeine standard curve. One standard curve was run before and after every test plate. For 3 test plates, four standard curves were generated.
Experimental Procedure: • 1. 5 μl of 5 mM test compound in DMSO was added to three adjacent wells in a plate. • 2. 695 μl of 10 mM phosphate buffer, pH 7.2, was added to each well. • 3. The plates were sealed. • 4. The plates were allowed to sonicate for 1 hour. • 5. The plates were shook on a plate orbital shaker for up to 6 hours. • 6. The plates were spinned at 5000 rpm (6000×G) overnight. • 7. Standard curves were prepared by adding 5 μl of stock solutions to wells according to Caffeine Concentrations for Standard Curve table below. • 8. Buffer (10 mM phosphate buffer, pH 7.2, 695 μl) was added. • 9. The plates were sealed. • 10. The plates were loaded onto a TOC/CLND. • 11. The results were analyzed after the run was completed.
The solubility was determined by comparing the reading generated by analysis of the sample to the standard curve. The value was then divided by the number of nitrogens contained in the compound. Corrections for impurities during the synthesis were included in the number of nitrogens. The resulting value was the reported solubility.

For data set [5], the target named is T4, CSF1R (Homo sapiens, UniProt P07333).
T4 construct: CSF-1R Q547- C972; M-His(6) (N)
T4 sequence (P07333 547-972): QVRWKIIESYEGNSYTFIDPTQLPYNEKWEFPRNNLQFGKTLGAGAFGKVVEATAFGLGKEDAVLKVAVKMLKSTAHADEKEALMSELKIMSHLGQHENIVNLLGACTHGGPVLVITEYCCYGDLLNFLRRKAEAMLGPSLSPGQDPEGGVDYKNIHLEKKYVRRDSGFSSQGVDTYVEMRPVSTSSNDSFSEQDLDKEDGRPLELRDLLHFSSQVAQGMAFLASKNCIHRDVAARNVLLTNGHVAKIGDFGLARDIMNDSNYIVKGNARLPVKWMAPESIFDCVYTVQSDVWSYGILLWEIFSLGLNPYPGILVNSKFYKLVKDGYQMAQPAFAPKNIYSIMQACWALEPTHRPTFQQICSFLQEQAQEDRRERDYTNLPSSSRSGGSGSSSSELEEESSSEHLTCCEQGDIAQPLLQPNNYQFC
Briefly: HTRF in vitro kinase assay, CSF1R. Particulars: 1 mM ATP. The format is biochemical. The protocol:
as §1, §2

As a reminder, the IC50 is the concentration that gives 50% inhibition. Low readings indicate inhibition by little substance, high ones a need for much substance. As usually defined, the solubility is how much of the substance goes into solution per volume.

Molecules are shown by their SMILES. ≈ marks a conversion by molar mass, not a printed value.

T1 sequence (P35968 789-1354): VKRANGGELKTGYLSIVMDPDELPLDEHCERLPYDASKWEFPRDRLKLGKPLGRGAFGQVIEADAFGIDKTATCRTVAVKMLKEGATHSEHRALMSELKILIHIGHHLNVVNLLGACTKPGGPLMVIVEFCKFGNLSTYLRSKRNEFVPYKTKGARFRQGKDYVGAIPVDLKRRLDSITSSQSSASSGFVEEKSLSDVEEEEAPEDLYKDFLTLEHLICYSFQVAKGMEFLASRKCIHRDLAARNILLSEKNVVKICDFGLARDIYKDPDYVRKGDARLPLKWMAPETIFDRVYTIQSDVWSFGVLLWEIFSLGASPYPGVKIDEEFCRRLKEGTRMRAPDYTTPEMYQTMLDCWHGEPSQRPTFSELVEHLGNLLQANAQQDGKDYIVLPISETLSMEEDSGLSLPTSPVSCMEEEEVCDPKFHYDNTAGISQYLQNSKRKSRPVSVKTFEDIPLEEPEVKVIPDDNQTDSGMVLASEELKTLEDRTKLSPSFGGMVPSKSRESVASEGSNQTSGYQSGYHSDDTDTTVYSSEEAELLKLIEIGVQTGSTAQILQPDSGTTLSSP

Consider `CNC(=O)c1cnc(N)c2c(-c3ccc(NC(=O)Nc4cccc(C)c4)cc3)csc12` [Example 2, 4-amino-N-methyl-3-(4-{[(3-methylphenyl)carbamoyl]amino}phenyl)thieno[3,2-c]pyridine-7-carboxamide], for which the concentration for half-maximal inhibition (IC50) in data set [1] came out at 2 nM; in data set [2] it was 6 nM; in data set [3], 58 nM; in data set [5] it was 3 nM. This compound had a solubility in data set [4] (aqueous buffer, kinetic from dmso stock, 35 μM compound in 10 mM phosphate buffer, pH 7.2) of 6.03 µM (≈ 2.6 µg/mL). Further, the “aqueous solubility, in words” value in data set [4] (comment on Table 5) is recorded as “extremely low aqueous solubility”.
